Measurements reported in publication PMC3195871 (Biochemical and biophysical research communications, 2011).

Target: T1, ArathEULS3 (Arabidopsis thaliana, UniProt Q945P1)
T1 sequence (Q945P1 2-317): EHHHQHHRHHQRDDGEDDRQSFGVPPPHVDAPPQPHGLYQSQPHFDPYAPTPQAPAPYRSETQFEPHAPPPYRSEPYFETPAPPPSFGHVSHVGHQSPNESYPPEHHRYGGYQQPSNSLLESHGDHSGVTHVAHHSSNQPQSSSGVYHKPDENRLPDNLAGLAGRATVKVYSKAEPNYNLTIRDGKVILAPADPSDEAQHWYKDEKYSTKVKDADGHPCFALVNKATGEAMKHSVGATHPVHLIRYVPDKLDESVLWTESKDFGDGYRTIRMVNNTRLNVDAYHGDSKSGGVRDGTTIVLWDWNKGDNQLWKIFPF
Assay: glycan microarray v4.[…], fluorescence
Format: binding
Conditions: glycan immobilised through spacer; relative to glycan with highest signal

Compound | %RFU ^* / ArathEUL
Galβ1-4(Fucα1-3)GlcNAcβ1-4Galβ1-4(Fucα1-3)GlcNAcβ1-4Galβ1-4(Fucα1-3)GlcNAcβ-Sp0 | 22,7%
GalNAcα1-3(Fucα1-2)Galβ1-4(Fucα1-3)GlcNAcβ1-3GalNAc-Sp14 | 73,6%
CC(=O)N[C@H]1[C@H](O[C@H]2[C@@H](O)[C@@H](CO)O[C@H](OCCCN)[C@@H]2NC(C)=O)O[C@H](CO)[C@@H](O)[C@@H]1O [GlcNAcβ1-3GalNAcα-Sp8] | 37,0%
Fucα1-2Galβ1-4(Fucα1-3)GlcNAcβ1-3GalNAcα-Sp14 | 100,0%
CC(=O)N[C@H]1[C@H](OCCN)O[C@H](CO)[C@@H](O[C@@H]2O[C@H](CO)[C@H](O)[C@H](O[C@]3(C(=O)O)C[C@H](O)[C@@H](NC(C)=O)[C@H]([C@H](O)[C@H](O)CO)O3)[C@H]2O)[C@@H]1O[C@@H]1O[C@@H](C)[C@@H](O)[C@@H](O)[C@@H]1O [Neu5Acα2-3Galβ1-4(Fucα1-3)GlcNAcβ-Sp0] | 46,6%
Galβ1-4(Fucα1-3)GlcNAcβ1-6GalNAc-Sp14 | 8,4%
Galβ1-4GlcNAcβ1-2Manα1-3(Galβ1-4GlcNAcβ1-2Manα1-6)Manβ1-4GlcNAcβ1-4GlcNAcβ-Sp12 | 9,1%
Galα1-3Galβ1-3GlcNAcβ1-2Manα1-3(Galα1-3Galβ1-3GlcNAcβ1-2Manα1-6)Manβ1-4GlcNAcβ1-4GlcNAc-Sp19 | 46,6%
Fucα1-2Galβ1-4(Fucα1-3)GlcNAcβ1-2Manα1-6(Fucα1-2Galβ1-4(Fucα1-3)GlcNAcβ1-2Manα1-3)Manβ1-4GlcNAcβ1-4(Fucα1-6)GlcNAcβ-6AA | 18,9%
Galβ1-4GlcNAcβ1-4(Galβ1-4GlcNAcβ1-2)Manα1-3(GlcNAcβ1-4)(Galβ1-4GlcNAcβ1-6(Galβ1-4-GlcNAcβ1-2)Manα1-6)Manβ1-4GlcNAcβ1-4GlcNAc-Sp21 | 67,5%
CC(=O)N[C@H]1[C@H](O[C@H]2[C@@H](O)[C@@H](CO)O[C@@H](O[C@H]3[C@H](O[C@@H]4O[C@@H](C)[C@@H](O)[C@@H](O)[C@@H]4O)[C@@H](NC(C)=O)[C@H](O[C@H]4[C@@H](O)[C@@H](CO)O[C@@H](O[C@H]5[C@H](O[C@@H]6O[C@@H](C)[C@@H](O)[C@@H](O)[C@@H]6O)[C@@H](NC(C)=O)[C@H](OCCN)O[C@@H]5CO)[C@@H]4O)O[C@@H]3CO)[C@@H]2O)O[C@H](CO)[C@@H](O[C@@H]2O[C@H](CO)[C@H](O[C@H]3O[C@H](CO)[C@@H](O)[C@H](O)[C@H]3NC(C)=O)[C@H](O)[C@H]2O)[C@@H]1O [GlcNAcα1-4Galβ1-4GlcNAcβ1-3Galβ1-4(Fucα1-3)GlcNAcβ1-3Galβ1-4(Fucα1-3)GlcNAcβ-Sp0] | 37,2%
Neu5Acα2-3-Galβ1-3(Galβ1-4(Fucα1-3)GlcNAcβ1-6)GalNAc-Sp14 | 14,8%
CC(=O)N[C@H]1[C@H](OCCOCCOCCOCCOCCOCCN)O[C@H](CO)[C@@H](O[C@@H]2O[C@H](CO)[C@H](O)[C@H](O)[C@H]2O)[C@@H]1O [Galβ1-4GlcNAcβ-(OCH2CH2)6NH2] | 15,6%
